Laboratory results taken from patent publication US20250313560A1, “Novel bicyclic benzylamido pyridine derivatives as SOS1 inhibitors” (Boehringer Ingelheim International GmbH, priority 2024, published 2025).
Like-named read-outs stand apart in the source and are kept apart here.

Columns and labels:
SOS1 and KRAS G12C = SOS1 and KRAS G12C (Homo sapiens (Human), UniProt Q07889); test: KRAS::SOS1 AlphaScreen binding assay (KRAS G12C); settings: average of at least two measurements
Method: (§1) Low IC50 values are indicative of high potency of the SOS1 inhibitor compound in this assay setting:
(§2) • GST-tagged SOS1 (564_1049_GST_TEV_ECO) produced in-house • 6xHis-Tev-K-RasG12D/G12C(1-169)Avi produced in-house • GDP (Sigma Cat No G7127) • AlphaLISA Glutathione Acceptor Beads (PerkinElmer, Cat No AL109) • AlphaScreen Streptavidin Donor Beads (PerkinElmer Cat No 6760002) • Assay plates: Proxiplate-384 PLUS, white (PerkinElmer, Cat No 6008289)
(§3) [formula] • KRAS::SOS1 GDP mix: • 7.5 nM (final assay concentration) K-RasG12C, 10 nM (final assay concentration) K-RasG12D, 10 μM (final assay concentration) GDP and 5 nM (final assay concentration) GST-SOS1 are mixed in assay buffer prior to use and kept at rt. Bead mix: • AlphaLISA Glutathione Acceptor Beads and AlphaScreen Streptavidin Donor Beads are mixed in the dark in assay buffer at a concentration of 10 μg/mL (final assay concentration) each prior to use and kept at rt.
(§4) Compounds are diluted to a final start concentration of 100 μM and are tested in duplicate. Assay-ready plates (ARPs) are generated using an Access Labcyte Workstation with a Labcyte Echo 550 or 555 acoustic dispenser. For compound a start concentration of 100 μM, 150 nL of compound solution is transferred per well in 11 concentrations in duplicate with serial 1:5 dilutions.
(§5) The assay is run using a fully automated robotic system in a darkened room below 100 Lux. 10 μL of KRAS::SOS1 GDP mix is added into columns 1-24 to the 150 nL of compound solution (final dilution in the assay 1:100, final DMSO concentration 1%).
(§6) After a 30 minute incubation time, 5 μL of bead mix is added into columns 1-23. Plates are kept at rt in a darkened incubator. After a further 60 minutes incubation, the signal is measured using a PerkinElmer Envision HTS Multilabel Reader using the AlphaScreen specifications from PerkinElmer. Each plate contains the following controls:
(§7) diluted DMSO+KRAS::SOS1 GDP mix+bead mix
(§8) diluted DMSO+KRAS::SOS1 GDP mix
(§9) Result calculation: IC50 values are calculated and analyzed using a 4 parametric logistic model.
(§10) Table 1: Inhibition values for KRAS G12C as well as for KRAS G12D. […] The value indicates an average value of at least two measurements.

SOS1 and KRAS G12D = SOS1 and KRAS G12D (Homo sapiens (Human), UniProt Q07889); test: KRAS::SOS1 AlphaScreen binding assay (KRAS G12D); settings: average of at least two measurements
Method: as §1, §2, §3, §4, §5, §6, §7, §8, §9, §10

[1] = tested on: ERK phosphorylation in NCI-H358 SOS2 KO cells (KRAS G12C); test: Erk phosphorylation assay; assay type: cell-based, human; settings: EGF stimulated, average of at least two measurements, read-out: pERK IC50
Method: Low IC50 values are indicative of high potency of the SOS1 inhibitor compounds in this assay setting.
ERK phosphorylation assays are performed using the following human cell line: • NCI-H358 SOS2 KO (Hofmann, Gmachl, Ramharter et al, Cancer Discov. 2021, 11(1):142-15): human lung cancer with a KRAS G12C mutation;
NCI-H358 SOS2 KO are seeded at 50000 cells per well in 60 μL of DMEM with 2% FBS, in Greiner TC 384 plates. The cells are incubated overnight in an incubator at 37° C. and 5% CO2 in a humidified atmosphere. 60 nL compound solution (10 mM DMSO stock solution) is then added using a Beckman Coulter Labcyte Echo 550 device. After 50 min incubation in the aforementioned incubator, 5 nl EGF are added to each well for a final concentration of approx. 8 ng/mL using a Beckman Coulter Labcyte Echo 550 device and cells are incubated for another 10-15 minutes before lysis. The medium is removed, and the cells are lysed by addition of 20 μL of 1.6-fold lysis buffer from the AlphaLISA SureFire Ultra pERK1/2 (Thr202/Tyr204) Assay Kit with added protease inhibitors. After 20 minutes of incubation at rt with shaking, 6 μL of each lysate sample is transferred to a 384-well Proxiplate and analyzed for pERK (Thr202/Tyr204) with the AlphaLISA SureFire Ultra pERK1/2 (Thr202/Tyr204) Assay Kit. 3 μL Acceptor Mix and 3 μL Donor Mix are added under subdued light and incubated for 2 h at rt in the dark, before the signal is measured on a Perkin Elmer Envision plate reader using 384 AlphaScreen settings for Proxiplates. Data are fitted by iterative calculation with variable hill slope. The sigmoidal curve slope is fitted using a default fitting curve to ascertain IC50 values.
Table 2: Erk Phosphorylation assay. The value indicates an average value of at least two measurements.

P450 3A4 = P450 3A4 (Homo sapiens (Human), UniProt P08684); test: Cytochrome P450 isoenzyme inhibition assay (P450 3A4, midazolam); assay type: in vitro ADME; settings: human liver microsomes, Midazolam as substrate; read-out: CYP3A4 inhibition IC50
Method: For the following cytochrome P450 isoenzymes, these substrates and metabolic reactions are monitored: P450 3A4: hydroxylation of Midazolam (MDZ).
The final incubation volume contains TRIS buffer (0.1 M), MgCl2 (5 mM), a certain concentration of human liver microsomes dependent on the P450 isoenzyme measured (P450 3A4: 0.1 mg/ml) and a certain concentration of the individual substrate for each isoenzyme (P450 3A4: Midazolam 5 μM).
The effect of the test compound is determined at five different concentrations in duplicate (e.g. highest concentration 50 μM with subsequent serial 1:4 dilutions) or without test compound (high control). Following a short preincubation period, reactions are started with the cofactor (NADPH, 1 mM) and stopped by cooling the incubation down to 8° C. and subsequently by addition of one volume of ACN. An internal standard solution—usually the stable isotope of the formed metabolite—is added after quenching of incubations. Peak area analyte (=metabolite formed) and internal standard is determined by LC-MS/MS. The resulting peak area ratio analyte to internal standard in these incubations is compared to a control activity containing no test compound. Within each of the assay runs, the IC50 of a positive control inhibitor dependent on the P450 isoenzyme measured (P450 3A4: ketoconazole) is determined. The assay results are plotted against compound concentrations to calculated IC50 values (half maximal inhibitory concentrations) for inhibitory compounds utilizing Software IDBS E-WorkBook.
Table 4: Inhibition of P450 isoenzyme 3A^4.

CYP3A4 = CYP3A4 (Homo sapiens (Human), UniProt P08684); test: Mechanism-based inhibition of CYP3A4 assay (MBI 3A4); assay type: in vitro ADME; settings: human liver microsomes, midazolam substrate, hydroxy-midazolam formation after 30 min preincubation relative to 0 min; for inhibition at 30 min: human, probe midazolam 15 μM (hydroxy-midazolam formation), read-out: MBI inhibition % ctrl. [%] with MDZ
Method: Mechanism-Based Inhibition of CYP3A4 assay (MBI 3A4): The mechanism-based inhibition towards CYP3A4 is assayed in human liver microsomes with midazolam as substrate. The test compounds and water control (wells w/o test compound) are preincubated in presence of NADPH (1 mM) with human liver microsomes (0.2 mg/mL) at a concentration of 0, 5 and 25 μM for 0, 10 and 30 min. After preincubation, the incubate is diluted 1:10 (to 0.02 mg/mL) and the substrate midazolam (15 μM) is added for the main incubation (10 min). The main incubation is quenched with ACN and the formation of hydroxy-midazolam is quantified via LC/MS-MS. The formation of hydroxy-midazolam from the 30 min preincubation relative to the formation from the 0 min preincubation is used as a readout. Values of less than 100% mean that the substrate midazolam is metabolized to a lower extent upon 30 min preincubation compared to 0 min preincubation. In general, low effects upon 30 min preincubation are desired (corresponding to values close to 100%/not different to the values determined with water control).
Table 5: Mechanism-based inhibition of P450 isoenzyme 3A4 with midazolam as substrate.

human hepatocytes = test: Metabolic stability in human hepatocytes; settings: 1 μM test compound, 50% human serum, percentage of liver blood flow
[2] = Homo sapiens, NCI-H358, NCI-H358 SOS2 KO cells

CYP3A4, sequence (P08684 whole entry): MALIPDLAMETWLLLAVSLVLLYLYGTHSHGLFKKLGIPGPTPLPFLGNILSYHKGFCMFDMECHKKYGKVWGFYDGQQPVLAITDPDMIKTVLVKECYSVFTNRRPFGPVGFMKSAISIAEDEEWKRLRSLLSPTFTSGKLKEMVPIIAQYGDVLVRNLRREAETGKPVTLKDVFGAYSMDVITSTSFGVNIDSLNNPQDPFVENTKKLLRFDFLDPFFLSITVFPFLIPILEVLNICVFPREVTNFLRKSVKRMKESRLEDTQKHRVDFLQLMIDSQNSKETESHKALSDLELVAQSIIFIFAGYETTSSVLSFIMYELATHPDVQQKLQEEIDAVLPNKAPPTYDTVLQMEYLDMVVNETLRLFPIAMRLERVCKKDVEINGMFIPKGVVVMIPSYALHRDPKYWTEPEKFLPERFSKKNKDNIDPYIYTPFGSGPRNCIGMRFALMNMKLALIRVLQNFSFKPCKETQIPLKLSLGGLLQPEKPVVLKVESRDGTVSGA
P450 3A4, sequence (P08684 whole entry): as above
SOS1 and KRAS G12D, sequence (Q07889 564-1049, stated change not applied): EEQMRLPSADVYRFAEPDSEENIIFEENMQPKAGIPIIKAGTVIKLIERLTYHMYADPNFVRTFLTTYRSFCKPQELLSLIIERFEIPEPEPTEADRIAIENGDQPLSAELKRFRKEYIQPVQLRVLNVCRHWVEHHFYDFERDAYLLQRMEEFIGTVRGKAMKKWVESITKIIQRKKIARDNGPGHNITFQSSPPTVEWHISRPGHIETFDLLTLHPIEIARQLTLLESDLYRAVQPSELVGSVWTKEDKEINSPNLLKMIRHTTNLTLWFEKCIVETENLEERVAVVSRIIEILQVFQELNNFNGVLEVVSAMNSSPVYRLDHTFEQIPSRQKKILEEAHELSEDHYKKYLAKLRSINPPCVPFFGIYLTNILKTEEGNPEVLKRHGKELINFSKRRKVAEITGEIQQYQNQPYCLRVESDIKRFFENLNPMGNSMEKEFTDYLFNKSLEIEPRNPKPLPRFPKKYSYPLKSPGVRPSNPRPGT
SOS1 and KRAS G12C, sequence (Q07889 564-1049, stated change not applied): as above

| Compound | IC50 (SOS1 and KRAS G12C) | IC50 (SOS1 and KRAS G12D) | IC50 ([1]; NCI-H358 SOS2 KO cells) | IC50 (P450 3A4) | MBI inhibition % ctrl. [%] with MDZ (CYP3A4) | Hepatic clearance - QH[%] in human hepatocytes (human hepatocytes) | inhibition at 30 min (CYP3A4) | IC50 [1, 2] |
| --- | --- | --- | --- | --- | --- | --- | --- | --- |
| C[C@@H](NC(=O)c1cc(N2CCC(NC3COCC3O)CC2)c2ncnn2c1)c1cccc(C(F)(F)F)c1F (single isomer, unassigned) [Example trans-E42b] | 37 nM | 36 nM | 153 nM | > 50000 nM | 94% | 16% | – | – |
| C[C@@H](NC(=O)c1cc(N2CCC(NC3CCCC3(C)O)CC2)c2ncnn2c1)c1cccc(C(F)(F)F)c1F (single isomer, unassigned) [Example trans-E53b] | 33 nM | 35 nM | 287 nM | > 50000 nM | – | 28% | 91% | – |
| C[C@@H](NC(=O)c1cc([C@H]2CC[C@H](N3CCC(F)C(O)C3)CC2)c2ncnn2c1)c1cccc(C(F)F)c1F (single isomer, unassigned) [Example trans-E61b] | 32 nM | 32 nM | 138 nM | > 50000 nM | 101% | 30% | – | – |
| C[C@@H](NC(=O)c1cc([C@H]2CC[C@H](N3CCC(F)C(O)C3)CC2)c2ncnn2c1)c1cccc(C(F)(F)F)c1F (single isomer, unassigned) [Example trans-E70b] | 36 nM | 42 nM | 169 nM | > 50000 nM | – | 19% | 107% | – |
| C[C@@H](NC(=O)c1cc([C@H]2CC[C@H](N3CCC(F)C(O)C3)CC2)c2ncnn2c1)c1cccc(C(F)F)c1F (single isomer, unassigned) [trans-E61a] | 39 nM | 41 nM | 391 nM | > 50000 nM | – | 40% | 93% | – |
| C[C@@H](NC(=O)c1cc(N2CCC(N3CCC[C@@H]3CO)CC2)c2ncnn2c1)c1cccc(C(F)F)c1F [Example E1] | 33 nM | 30 nM | – | > 50000 nM | – | 17% | 98% | 118 nM |
| C[C@@H](NC(=O)c1cc(N2CCC(N3CC[C@@H](O)C3)CC2)c2ncnn2c1)c1cccc(C(F)F)c1F [Example E2] | 55 nM | 46 nM | – | > 50000 nM | – | 15% | 95% | 92 nM |
| C[C@@H](NC(=O)c1cc(N2CCC(N3C[C@H](O)C4(CC4)C3)CC2)c2ncnn2c1)c1cccc(C(F)F)c1F [Example E3] | 59 nM | 50 nM | – | > 50000 nM | – | 24% | 94% | 155 nM |
| C[C@@H](NC(=O)c1cc(N2CCC(N3CC[C@](C)(O)C3)CC2)c2ncnn2c1)c1cccc(C(F)F)c1F [Example E4] | 82 nM | 70 nM | – | > 50000 nM | – | 20% | 99% | 336 nM |
| C[C@@H](NC(=O)c1cc(N2CCC(N3CC[C@@](C)(O)C3)CC2)c2ncnn2c1)c1cccc(C(F)F)c1F [Example E5] | 65 nM | 57 nM | – | > 50000 nM | – | 16% | 103% | 324 nM |
| C[C@@H](NC(=O)c1cc(N2CCC(N3CCC[C@H]3CO)CC2)c2ncnn2c1)c1cccc(C(F)F)c1F [Example E6] | 36 nM | 37 nM | – | > 50000 nM | – | 16% | 102% | 247 nM |
| C[C@@H](NC(=O)c1cc(N2CCC(N(C)CC(C)(C)O)CC2)c2ncnn2c1)c1cccc(C(F)F)c1F [Example E7] | 50 nM | 43 nM | – | > 50000 nM | – | 31% | 106% | 246 nM |
| C[C@@H](NC(=O)c1cc(N2CCC(N3CCC4(CC4)C3)CC2)c2ncnn2c1)c1cccc(C(F)F)c1F [Example E8] | 70 nM | 69 nM | – | > 50000 nM | – | 18% | 97% | 188 nM |
| CO[C@H]1CCN(C2CCN(c3cc(C(=O)N[C@H](C)c4cccc(C(F)F)c4F)cn4ncnc34)CC2)C1 [Example E10] | 74 nM | 67 nM | – | > 50000 nM | – | 29% | 97% | 212 nM |
